Here are results for 4 compounds from patent US7332623B2 (Kaohsiung Medical University, priority 2003, dated 2008).

The subject of series [1] is NCI (NCI-H661): human lung large cell carcinoma. Briefly: In vitro anticancer assay (cytotoxicity), solid tumor cells.
Series [2] has as its system Hep2,2,15. The conditions noted are these: Hep2,2,15, Table 1; cited from earlier work.
Series [3] relates to KB cell. The conditions noted are these: Table 1; cited from earlier work.
The subject of series [4] is DLD (DLD-1): human colon adenocarcinoma. Briefly: In vitro anticancer assay (cytotoxicity), solid tumor cells.
Series [5] concerns Hepa: human hepatoma.
Series [6] concerns KB: human oral epidermoid carcinoma.
Series [7] has as its system DLD (DLD-1): human colon adenocarcinoma.
The subject of series [8] is Hela: human cervix epitheloid carcinoma.
Series [9] has as its target T1, topoisomerase I (Homo sapiens, UniProt P11387).
T1 sequence (P11387 1-765): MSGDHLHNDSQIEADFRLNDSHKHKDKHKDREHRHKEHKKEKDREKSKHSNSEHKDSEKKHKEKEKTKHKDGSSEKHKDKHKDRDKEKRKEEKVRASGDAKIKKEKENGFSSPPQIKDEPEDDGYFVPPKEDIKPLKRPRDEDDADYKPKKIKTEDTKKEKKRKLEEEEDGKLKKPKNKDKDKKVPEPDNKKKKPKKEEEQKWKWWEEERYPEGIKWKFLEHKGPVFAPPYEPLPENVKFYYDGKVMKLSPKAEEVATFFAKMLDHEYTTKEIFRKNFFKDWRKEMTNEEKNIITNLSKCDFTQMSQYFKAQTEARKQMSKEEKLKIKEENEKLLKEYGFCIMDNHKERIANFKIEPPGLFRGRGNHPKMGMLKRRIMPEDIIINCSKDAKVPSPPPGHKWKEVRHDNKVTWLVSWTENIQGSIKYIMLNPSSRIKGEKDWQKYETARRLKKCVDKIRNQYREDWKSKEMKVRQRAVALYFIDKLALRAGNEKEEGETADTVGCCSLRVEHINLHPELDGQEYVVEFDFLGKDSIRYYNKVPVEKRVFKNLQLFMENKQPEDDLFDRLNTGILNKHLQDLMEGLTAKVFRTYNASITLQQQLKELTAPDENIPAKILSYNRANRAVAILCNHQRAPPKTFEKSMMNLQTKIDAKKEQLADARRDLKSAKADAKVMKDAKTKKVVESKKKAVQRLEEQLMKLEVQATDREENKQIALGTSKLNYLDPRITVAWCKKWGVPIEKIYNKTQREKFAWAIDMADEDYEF
The experiment in a line: Topoisomerase I assay, cleavage of supercoiled pGEM9zf(−) DNA, gel electrophoresis. It counts as biochemical. The conditions noted are these: from FIGS. 1 and 2.

In series [10] the test system is Leukemia cell lines. Briefly: NCI panel, average of cell lines. The conditions noted are these: Homo sapiens, read-out: cytotoxicity GI50, average value of all the cancer cell lines.
Series [11] has as its system Ovarian Cancer cell lines. The experiment in a line: NCI panel, average of cell lines. The conditions noted are these: Homo sapiens, read-out: cytotoxicity GI50, average value of all the cancer cell lines.
For series [12], the system named is CNS cancer cell SF-268. The experiment in a line: Preliminary cytotoxicity test. It counts as cell-based, human.
Series [13] has as its system Colon Cancer cell lines. Briefly: NCI panel, average of cell lines. The note with it: Homo sapiens, read-out: cytotoxicity GI50, average value of all the cancer cell lines.
Series [14] concerns Prostate Cancer cell lines. Briefly: NCI panel, average of cell lines. The conditions noted are these: Homo sapiens, read-out: cytotoxicity GI50, average value of all the cancer cell lines.
Series [15] relates to CNS Cancer cell lines. Briefly: NCI panel, average of cell lines. The note with it: Homo sapiens, read-out: cytotoxicity GI50, average value of all the cancer cell lines.
Series [16] has as its system Renal Cancer cell lines. The experiment in a line: NCI panel, average of cell lines. The conditions noted are these: Homo sapiens, read-out: cytotoxicity GI50, average value of all the cancer cell lines.
The test system of series [17] is K-562 cells. Briefly: Cell cycle distribution by flow cytometry. It counts as cell-based, human. The note with it: K-562, 72 hrs. On the technique in general: A flow cytometer gives signals particle by particle.
Experimental: Samples of 1×10^6 Hep G2 cells were plated on a 6 cm tissue culture dish, and the cells were allowed to recover 24 hrs before any treatment. Thereafter, DMSO or a test compound (1 μM, 10 μM or 50 μM) was added to the cells for 1 hr in complete medium at 37° C., washed twice with PBS, and incubated in fresh media for the incubation time. Cell were harvested with trypsin and washed twice with PBS. Samples were fixed in 70% ethanol and stored at 4° C. for at least 24 hrs and then washed once with McIlvaine's buffer (0.2M Na2HPO4, 0.1M citric acid, pH=7.5) and once again with PBS. Samples were stained with PI (propidium iodide) staining solution (PBS containing 100 μg/ml, RNase A and 10 μg/ml PI [Sigma]), processed on a Coulter Elite flow cytometry, and the data analyzed with the Mutiplus AV program.
Series [18] deals with Non-Small Cell Lung Cancer cell lines. Briefly: NCI panel, average of cell lines. The conditions noted are these: Homo sapiens, read-out: cytotoxicity GI50, average value of all the cancer cell lines.
The subject of series [19] is Breast cancer cell MCF-7. Briefly: Preliminary cytotoxicity test. It counts as cell-based, human.
Series [20] deals with Breast Cancer cell lines. The experiment in a line: NCI panel, average of cell lines. The note with it: Homo sapiens, read-out: cytotoxicity GI50, average value of all the cancer cell lines.
For series [21], the system named is Non-small cell Lung cancer cell NCI-H460. Briefly: Preliminary cytotoxicity test. It counts as cell-based, human.
Series [22] has as its system Melanoma cell lines. Briefly: NCI panel, average of cell lines. The note with it: Homo sapiens, read-out: cytotoxicity GI50, average value of all the cancer cell lines.

SMILES strings stand for the structures. Where two headings read alike, the source gives them in different places. Marks after values point to notes of the source that are not given here.

Usually IC50 stands for the concentration needed to halve the response being measured. In the case of `N#Cc1ccccc1C#C/C=C\C#CCCCOC1CCCCO1` (centres unmarked) [Compound 2, 2-(9-(Tetrahydropyranyloxy)-3(Z)-nonen-1,5-diynyl)-benzonitrile], the “IC50 Values of Cytotoxicities” value in series [1] and in [4] was “— (“—” means IC50 > 20 μg/ml)” each time. Further, the IC50 was > 10000 nM in [2] and < 10 nM in series [3].

As to `CCCCC#C/C=C\C#Cc1ccc(Cl)cc1` [Compound 13], the “IC50 Values of Cytotoxicities” value in series [5] and in [6] was “— (key: “—” means IC50 > 20 μg/ml)” in each case.

As to `CCCCCCC#C/C=C\C#Cc1ccc(C(C)=O)cc1` [Compound 23, 4-(3-(Z)-Dodecen-1,5-diynyl)acetophenone], the “IC50 Values of Cytotoxicities” value in series [5], in series [7] and in [8] was “— (key: “—” means IC50 > 20 μg/ml)” each time. For the same compound, the “topo I inhibitor, overall conclusion” value in [9] is listed as “displayed topo I inhibitory activities”.

As for `N#Cc1ccccc1C#CC=CC#Cc1ccccc1N` [Compound 32, 2-[6-(o-anilinyl)-3-hexen-1,5-diynyl]benzonitrile], the GI50 in series [10] was found to be 430 nM; in [11], 1550 nM; in series [13] it was 470 nM; in [14] it was 3130 nM; in series [15] it was 9440 nM; in series [16] it was 660 nM. Besides, the GI50 in series [18] was 1700 nM; in series [20] it was 2000 nM; in [22] it was 770 nM. Moreover, the Growth percentage in series [12] is reported as 27* %; in [19] it was 36%; in series [21], 8* %. The “accumulation of G2/M stage cells” value in series [17] is given as “an accumulation of G2/M stage cells”.
